The text below walks through data of PMC5874716, “Antimicrobial Peptides for Topical Treatment of Osteomyelitis and Implant-Related Infections: Study in the Spongy Bone” (Pharmaceuticals, 2018).

Non-standard residues stand in square brackets, D forms with d. Residues, ends and D or L forms follow the SMILES beside them. No end group written: not given here.

The subject of one data set is C. glabrata DSY565. The experiment in a line: Biofilm formation on bone cement (Palacos r) model implants in infected femur head. The arrangement: species or system Candida glabrata. Particulars: microbes infiltrated from a hole between implants; 2 days; single experiment. The source says: (§1) The poly(methyl methacrylate)-based bone cement with or without AMPs was implanted either inside infected holes or inside non-infected holes. In the latter case, the microbes infiltrated towards the implant from a hole made between them at roughly equal distance from each (Figure 3). This would simulate the authentic situation in which the pathogens can infect an orthopaedic implant by spreading through the bloodstream or contiguously from areas of infection. We evaluated the experiments on the basis of the amounts of microbes released from the biofilms supposedly formed on the surfaces of the implants that were removed from the infected bone samples.
(§2) The bone samples with bored holes inside were prepared and handled as above. The bone cement (Palacos®r, Hereaus Medical GmbH, Wehrheim, Germany) with AMP incorporated was prepared by swift and thorough mixing of the polymer powder component (poly-methylacrylate, methyl methacrylate, 125 mg) and AMP (10 mg) or antibiotic (10 mg) with the liquid monomer (methyl methacrylate, N,N-dimethyl-p-toluidine, hydroquinone and colorant E141, 70 μL). The resulting elastic paste was pressed using a 2 mL plastic syringe into two bored holes, where it polymerized and solidified. The paste without peptide for filling of the remaining two holes was prepared similarly by mixing the powder component (125 mg) and liquid component (68 μL). […]

Data set [1] relates to C. albicans ATCC MYA-2876. Described as above. The arrangement: species or system Candida albicans. Particulars: microbes infiltrated from a hole between implants, 2 days, single experiment.
From the text: as §1, §2

A further data set relates to Candida albicans. In kind it is cell-based. Particulars: Bioscreen C; at least three times in duplicates. As to the method:
(§3) Femur heads (ca. 70 pieces) taken from patients during hip replacement surgery were periodically purchased in the period between 2014–2017 as discarded from the bone tissue bank at University Hospital in Motol, Prague, Czech Republic. The reason for the replacements by artificial prosthesis was the worn out cartilage on the surface of their heads. Bone samples were stored at −80 °C under standard conditions of certified tissue banks. In the laboratory, they were kept at +5 °C overnight and then at room temperature for several hours before they could be used for the experiments. The experiments with this material were approved by the Ethics Committee for Multi-Centric Clinical Trials of the University Hospital Motol, Reference No: EK-655/15. Methicillin-resistant S. aureus (MRSA 6271) ATCC 43300 and P. aeruginosa (5482) ATCC 27853 were purchased from the Czech National Collection of Type Cultures, National Institute of Public Health, Prague, Czech Republic. Methicillin-resistant S. aureus (MRSA (L)) and P. aeruginosa (L) were obtained as multi-resistant clinical isolates from Liberec Regional Hospital, Liberec, Czech Republic. Methicillin-resistant S. aureus (MRSA (M)), E. faecalis and S. epidermidis were obtained as clinical isolates from University Hospital in Motol, Prague. Candida albicans (F7-39/IDE99) came from the mycological collection of the Faculty of Medicine, Palacky University, Olomouc, Czech Republic. C. albicans ATCC MYA-2876, C. tropicalis ATCC 750 and C. glabrata DSY565 were kindly provided by Dr. Hana Sychrová from the Institute of Physiology, Academy of Sciences of the Czech Republic, Prague. Vancomycin hydrochloride, gentamicin sulfate, ceftriaxone disodium salt, amphotericin B, fluconazole, and clotrimazole were obtained from Sigma-Aldrich, Prague, Czech Republic.
(§4) MIC values for peptides were established by observing growth of treated bacteria in HONEYCOMB 100-well microtiter plates (Helsinki, Finland) using a Bioscreen C instrument (Oy Growth Curves, Helsinki, Finland) as previously described. Haemolytic activity of peptides expressed as the concentration of a peptide required for lysis of 50% of human erythrocytes in the assay (LC50) was measured using a Tecan infinite M200 PRO reader (Tecan Austria GmbH, Grödig, Austria). Blood samples for determining haemolytic activity were obtained from healthy volunteers.

The test system of a further data set is human erythrocytes. The experiment in a line: Haemolysis assay. To be noted: concentration causing lysis of 50% of human red blood cells; at least three times in duplicates. In kind it is cell-based. As to the method: as §4
The next data set has as its system MRSA 6271 (ATCC 43300). The experiment in a line: microbe, parasite or virus in culture. It is filed as cell-based. Particulars: growth in 100-well microtiter plates, Bioscreen C; tested at least three times in duplicates. The protocol:
as §3, §4

Data set [2] deals with MRSA clinical isolate from Liberec Regional Hospital (MRSA (L)). The experiment in a line: microbe, parasite or virus in culture. Particulars: clinical isolate Liberec; Bioscreen C; at least three times in duplicates. In kind it is cell-based. The protocol: as §3, §4
Data set [3] has as its system P. aeruginosa (5482) ATCC 27853. Description: microbe, parasite or virus in culture. It is filed as cell-based. Particulars: Bioscreen C; at least three times in duplicates. The protocol:
as §3, §4

The subject of data set [4] is MRSA clinical isolate from University Hospital in Motol (MRSA (M)). The experiment in a line: microbe, parasite or virus in culture. To be noted: clinical isolate Motol; Bioscreen C; at least three times in duplicates. In kind it is cell-based. The protocol:
as §3, §4

Data set [5] relates to E. faecalis clinical isolate (Motol). The experiment in a line: microbe, parasite or virus in culture. It is filed as cell-based. Particulars: clinical isolate Motol; Bioscreen C; at least three times in duplicates. As to the method:
as §3, §4

The test system of data set [6] is S. epidermidis clinical isolate (Motol). Description: microbe, parasite or virus in culture. In kind it is cell-based. Particulars: clinical isolate Motol; Bioscreen C; at least three times in duplicates. As to the method:
as §3, §4

Data set [7] has as its system P. aeruginosa clinical isolate from Liberec Regional Hospital. Description: microbe, parasite or virus in culture. In kind it is cell-based. To be noted: clinical isolate Liberec; Bioscreen C; at least three times in duplicates. The protocol:
as §3, §4

For another data set, the system named is Micrococcus luteus. The experiment in a line: Drop diffusion test. It is filed as cell-based. Particulars: RP-HPLC peak of bone marrow extract containing the three defensins; not shown. The text has this: In several cases when an all-D isomeric peptide alone, or in combination with its parent L-isomer in a 1:4 ratio in the blend with the carrier were applied to the infected hole, we observed a zero microbial count. We suppose that the contribution of D-isomeric peptides (II, VII, X, XII) to bacterial eradication was due to their resistance to proteases either exerted by bacteria or originated from the cells of the bone tissue. In these cases, we detected intact all-D peptide in the extract of the fillings (recovered from the infected hole after completing the experiment) by Reversed-Phase (RP)-HPLC analysis (not shown). On the other hand, the RP-HPLC analyses of the extracts of the fillings containing solely L-peptides indicated partial to complete digestion of peptides by proteases. Nevertheless, we assume that in all cases presented in Table 3 and Figure 2, it was the fast killing effect of AMPs on bacteria that played a conclusive role in eradicating the infection in the bone samples. When carrying out the experiments, we had to take into account that the bacterial load in an infected hole also could be reduced by components of the bone marrow immune system, including blood cells such as neutrophils. […] In one of the RP-HPLC peaks, we detected by mass spectrometry the presence of three human α-defensins HNP1, HNP2, and HNP3 [32] […]

A further data set concerns laboratory rats. Particulars: infected femurs of laboratory rats treated locally; cited from earlier work. The text has this:
Another issue might be the toxicity of these peptides when applied locally to the bone tissue of laboratory animals or humans. […] None of these animals died.

For the compound `Clc1ccccc1C(c1ccccc1)(c1ccccc1)n1ccnc1` [Clotrimazole, clotrimazole, reference compound], the “CFU/Implant, C. glabrata” value in the data set with C. glabrata DSY565 is on record as 1.2 × 10^6 CFU/implant.
With `OC(Cn1cncn1)(Cn1cncn1)c1ccc(F)cc1F` [Fluconazole, fluconazole, reference compound], the “CFU/Implant, C. albicans c” value in data set [1] is on record as 3.6 × 10^4 CFU/implant.
Turning to `CC[C@H](C)[C@H](NC(=O)[C@H](CCCCN)NC(=O)[C@H](CCCCN)NC(=O)[C@@H](CC(C)C)NC(=O)[C@H](CC(C)C)NC(=O)[C@H](CCCCN)NC(=O)[C@H](CCSC)NC(=O)[C@H](Cc1c[nH]c2ccccc12)NC(=O)[C@H](CCCCN)NC(=O)CN)C(=O)N[C@@H](CC(C)C)C(=O)N[C@@H](CCCCN)C(N)=O` [VIII] (H-GKWMKL[dL]KKILK-NH2; N-terminus assumed), the “Antimicrobial Activity MIC, C. a.” value in the data set with Candida albicans is 8.0 µM. In the data set with C. glabrata DSY565, the “CFU/Implant, C. glabrata” value was 2.4 × 10^3 CFU/implant. In the data set on human erythrocytes, the “Haemolytic Activity LC50” value was more than 400 µM. For the same compound, the “Antimicrobial Activity MIC, MRSA 6271” value in the data set on MRSA 6271 (ATCC 43300) is 18.7 µM. Besides, the “Antimicrobial Activity MIC, MRSA a” value in data set [2] came out at 13.3 µM. In addition, the “Antimicrobial Activity MIC, P. a. 5482” value in [3] was found to be 5.0 µM. Besides, the “Antimicrobial Activity MIC, MRSA b” value in data set [4] amounted to 32.0 µM. In data set [5], the “Antimicrobial Activity MIC, E. f. b” value was more than 100 µM. The “Antimicrobial Activity MIC, S. e. b” value in data set [6] amounted to 4.0 µM. In data set [7], the “Antimicrobial Activity MIC, P. a. a” value is 32.0 µM. Moreover, the “CFU/Implant, C. albicans c” value in data set [1] is reported as 6.0 × 10^3 CFU/implant.
In the case of “CYCRIPACIAGERRYGTCIYQGRLWAFCC [HNP2, human α-defensin detected in bone marrow extract of the femur head]”, the “antimicrobial activity in drop diffusion tests” value with Micrococcus luteus is “exhibited antimicrobial activity”.
Regarding GKWMKLLKKILK-NH2 [I], the “Antimicrobial Activity MIC, C. a.” value in the data set with Candida albicans was 5.7 µM. Moreover, the “Haemolytic Activity LC50” value with human erythrocytes came out at 339 µM. The “Antimicrobial Activity MIC, MRSA 6271” value with MRSA 6271 (ATCC 43300) was found to be 6.3 µM. Also, in data set [2], the “Antimicrobial Activity MIC, MRSA a” value worked out at 3.6 µM. Moreover, in [3], the “Antimicrobial Activity MIC, P. a. 5482” value came out at 2.8 µM. For the same compound, the “Antimicrobial Activity MIC, MRSA b” value in [4] came to 5.7 µM. Moreover, the “Antimicrobial Activity MIC, E. f. b” value in data set [5] was found to be 13.3 µM. The “Antimicrobial Activity MIC, S. e. b” value in data set [6] is 2.3 µM. For the same compound, the “Antimicrobial Activity MIC, P. a. a” value in data set [7] was determined as 10.0 µM. In the data set with laboratory rats, the animals died entry is “None” and the “signs of local or systemic toxicity” value was “did not notice any signs of local or systemic toxicity”.
